Test results from the kinase profiling compilation of Christmann-Franck et al. (2016).

Key:
Assay in all cases: KINOMEscan competition binding
Details in all cases: compound 10.0 µM
ACVR2A (human) = ACVR2A (human) (UniProt P27037)
AKT3 (human) = AKT3 (human) (UniProt Q9Y243)
BMPR1A (human) = BMPR1A (human) (UniProt P36894)
CDK17 (human) = CDK17 (human) (UniProt Q00537)
CDKL2 (human) = CDKL2 (human) (UniProt Q92772)
CHEK2 (human) = CHEK2 (human) (UniProt O96017)
CSK (human) = CSK (human) (UniProt P41240)
CSNK2A1 (human) = CSNK2A1 (human) (UniProt P68400)
Sequence of CSNK2A1 (human) (P68400 whole entry, looked up): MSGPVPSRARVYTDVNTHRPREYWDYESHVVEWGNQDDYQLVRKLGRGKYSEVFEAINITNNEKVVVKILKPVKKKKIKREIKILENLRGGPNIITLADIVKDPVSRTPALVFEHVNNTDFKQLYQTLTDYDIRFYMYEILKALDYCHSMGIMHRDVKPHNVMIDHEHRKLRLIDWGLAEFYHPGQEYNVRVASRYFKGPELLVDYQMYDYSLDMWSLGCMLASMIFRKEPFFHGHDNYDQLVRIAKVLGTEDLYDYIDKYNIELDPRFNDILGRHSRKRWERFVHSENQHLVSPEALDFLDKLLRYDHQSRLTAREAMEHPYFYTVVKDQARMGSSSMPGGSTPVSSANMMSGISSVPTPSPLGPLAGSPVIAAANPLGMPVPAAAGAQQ

DMPK (human) = DMPK (human) (UniProt Q09013)
[1] = tested on: EIF2AK4 KD2 (human), Q9P2K8 [S808G]
EPHA6 (human) = EPHA6 (human) (UniProt Q9UF33)
EPHA7 (human) = EPHA7 (human) (UniProt Q15375)
FER (human) = FER (human) (UniProt P16591)
FGFR2 (human) = FGFR2 (human) (UniProt P21802)
[2] = tested on: FLT3 (human), P36888 [N841I]
[3] = target: JAK1 JH1 catalytic (human) (UniProt P23458)
Sequence of JAK1 JH1 catalytic (human) (P23458 whole entry, looked up): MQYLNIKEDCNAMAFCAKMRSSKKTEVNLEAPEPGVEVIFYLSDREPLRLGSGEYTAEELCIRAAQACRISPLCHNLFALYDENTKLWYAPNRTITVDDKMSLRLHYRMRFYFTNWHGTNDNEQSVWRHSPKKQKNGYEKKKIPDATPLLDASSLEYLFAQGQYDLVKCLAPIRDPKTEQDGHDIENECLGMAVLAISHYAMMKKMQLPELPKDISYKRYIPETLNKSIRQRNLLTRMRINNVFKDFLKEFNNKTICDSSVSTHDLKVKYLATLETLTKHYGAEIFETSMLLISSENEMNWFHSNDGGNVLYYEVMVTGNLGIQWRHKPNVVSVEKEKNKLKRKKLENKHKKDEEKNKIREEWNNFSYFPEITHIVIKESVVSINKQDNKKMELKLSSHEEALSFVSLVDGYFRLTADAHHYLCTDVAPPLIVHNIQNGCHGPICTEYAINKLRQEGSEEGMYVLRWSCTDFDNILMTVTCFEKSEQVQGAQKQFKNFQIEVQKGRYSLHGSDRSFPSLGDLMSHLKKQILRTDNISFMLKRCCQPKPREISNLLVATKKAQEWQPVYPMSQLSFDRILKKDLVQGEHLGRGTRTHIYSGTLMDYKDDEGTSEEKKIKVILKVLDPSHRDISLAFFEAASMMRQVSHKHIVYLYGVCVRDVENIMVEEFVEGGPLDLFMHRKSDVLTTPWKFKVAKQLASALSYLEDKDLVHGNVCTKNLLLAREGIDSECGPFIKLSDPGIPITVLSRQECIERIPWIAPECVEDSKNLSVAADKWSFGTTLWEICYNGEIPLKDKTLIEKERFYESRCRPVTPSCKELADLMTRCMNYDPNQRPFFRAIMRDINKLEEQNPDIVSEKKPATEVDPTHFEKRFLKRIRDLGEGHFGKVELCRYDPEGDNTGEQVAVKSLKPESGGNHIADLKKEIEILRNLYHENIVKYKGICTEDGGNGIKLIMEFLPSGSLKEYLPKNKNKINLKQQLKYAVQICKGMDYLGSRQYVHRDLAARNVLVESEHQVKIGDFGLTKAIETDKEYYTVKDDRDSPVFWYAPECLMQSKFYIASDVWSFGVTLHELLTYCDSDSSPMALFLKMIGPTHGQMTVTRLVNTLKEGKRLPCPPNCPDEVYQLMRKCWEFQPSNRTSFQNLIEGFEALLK

[4] = target: JAK1 JH2 pseudokinase (human) (UniProt P23458)
Sequence of JAK1 JH2 pseudokinase (human) (P23458 whole entry, looked up): as above

MAPK10 (human) = MAPK10 (human) (UniProt P53779)
Sequence of MAPK10 (human) (P53779 whole entry, looked up): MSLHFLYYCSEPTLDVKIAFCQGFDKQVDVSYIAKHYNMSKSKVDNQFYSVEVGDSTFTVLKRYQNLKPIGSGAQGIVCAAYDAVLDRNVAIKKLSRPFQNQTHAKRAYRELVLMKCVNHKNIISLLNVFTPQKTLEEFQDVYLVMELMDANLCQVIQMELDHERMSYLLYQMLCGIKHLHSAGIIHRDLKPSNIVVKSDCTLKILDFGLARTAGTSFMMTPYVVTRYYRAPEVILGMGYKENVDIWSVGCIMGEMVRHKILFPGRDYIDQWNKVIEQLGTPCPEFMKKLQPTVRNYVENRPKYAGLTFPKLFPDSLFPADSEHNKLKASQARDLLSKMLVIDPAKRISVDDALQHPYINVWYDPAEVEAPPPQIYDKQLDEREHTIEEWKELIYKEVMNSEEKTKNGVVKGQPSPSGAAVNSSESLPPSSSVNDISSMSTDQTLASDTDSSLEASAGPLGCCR

MAPK4 (human) = MAPK4 (human) (UniProt P31152)
MST1R (human) = MST1R (human) (UniProt Q04912)
MST4 (human) = MST4 (human) (UniProt Q9P289)
NEK6 (human) = NEK6 (human) (UniProt Q9HC98)
NUAK2 (human) = NUAK2 (human) (UniProt Q9H093)
Sequence of NUAK2 (human) (Q9H093 whole entry, looked up): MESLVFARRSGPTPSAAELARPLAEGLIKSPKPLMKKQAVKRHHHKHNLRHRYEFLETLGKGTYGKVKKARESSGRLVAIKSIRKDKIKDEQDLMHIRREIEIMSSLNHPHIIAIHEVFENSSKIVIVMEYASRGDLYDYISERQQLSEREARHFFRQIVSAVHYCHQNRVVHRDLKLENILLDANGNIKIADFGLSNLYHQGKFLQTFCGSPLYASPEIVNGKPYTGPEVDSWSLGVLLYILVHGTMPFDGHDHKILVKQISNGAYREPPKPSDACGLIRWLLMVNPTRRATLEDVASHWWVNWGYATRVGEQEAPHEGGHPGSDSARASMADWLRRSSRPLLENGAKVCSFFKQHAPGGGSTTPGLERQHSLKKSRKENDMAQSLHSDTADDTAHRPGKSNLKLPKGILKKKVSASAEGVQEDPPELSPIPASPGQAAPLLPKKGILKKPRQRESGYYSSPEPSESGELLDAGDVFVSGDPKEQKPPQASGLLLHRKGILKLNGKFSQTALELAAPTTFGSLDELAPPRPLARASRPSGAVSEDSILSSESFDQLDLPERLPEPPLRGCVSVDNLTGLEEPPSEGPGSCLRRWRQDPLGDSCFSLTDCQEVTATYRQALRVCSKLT

PAK1 (human) = PAK1 (human) (UniProt Q13153)
Sequence of PAK1 (human) (Q13153 whole entry, looked up): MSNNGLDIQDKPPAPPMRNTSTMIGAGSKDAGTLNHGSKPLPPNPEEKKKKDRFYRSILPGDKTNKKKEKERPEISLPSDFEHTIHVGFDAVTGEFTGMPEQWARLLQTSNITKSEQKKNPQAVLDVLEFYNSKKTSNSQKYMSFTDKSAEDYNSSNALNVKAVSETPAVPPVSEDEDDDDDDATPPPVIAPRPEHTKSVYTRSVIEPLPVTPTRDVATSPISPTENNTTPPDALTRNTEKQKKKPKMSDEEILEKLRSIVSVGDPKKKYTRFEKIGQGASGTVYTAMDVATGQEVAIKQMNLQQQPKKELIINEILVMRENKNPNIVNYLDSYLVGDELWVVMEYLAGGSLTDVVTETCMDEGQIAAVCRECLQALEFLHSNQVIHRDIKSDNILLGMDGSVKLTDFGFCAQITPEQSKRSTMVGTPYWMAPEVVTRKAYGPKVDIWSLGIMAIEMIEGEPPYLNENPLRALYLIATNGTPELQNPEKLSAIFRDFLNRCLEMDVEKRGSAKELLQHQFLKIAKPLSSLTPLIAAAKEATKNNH

PIM1 (human) = PIM1 (human) (UniProt P11309)
PIM3 (human) = PIM3 (human) (UniProt Q86V86)
PRKCD (human) = PRKCD (human) (UniProt Q05655)
PRKG1 (human) = PRKG1 (human) (UniProt Q13976)
RIPK1 (human) = RIPK1 (human) (UniProt Q13546)
RPS6KA2 KD1 (human) = RPS6KA2 KD1 (human) (UniProt Q15349)
Sequence of RPS6KA2 KD1 (human) (Q15349 whole entry, looked up): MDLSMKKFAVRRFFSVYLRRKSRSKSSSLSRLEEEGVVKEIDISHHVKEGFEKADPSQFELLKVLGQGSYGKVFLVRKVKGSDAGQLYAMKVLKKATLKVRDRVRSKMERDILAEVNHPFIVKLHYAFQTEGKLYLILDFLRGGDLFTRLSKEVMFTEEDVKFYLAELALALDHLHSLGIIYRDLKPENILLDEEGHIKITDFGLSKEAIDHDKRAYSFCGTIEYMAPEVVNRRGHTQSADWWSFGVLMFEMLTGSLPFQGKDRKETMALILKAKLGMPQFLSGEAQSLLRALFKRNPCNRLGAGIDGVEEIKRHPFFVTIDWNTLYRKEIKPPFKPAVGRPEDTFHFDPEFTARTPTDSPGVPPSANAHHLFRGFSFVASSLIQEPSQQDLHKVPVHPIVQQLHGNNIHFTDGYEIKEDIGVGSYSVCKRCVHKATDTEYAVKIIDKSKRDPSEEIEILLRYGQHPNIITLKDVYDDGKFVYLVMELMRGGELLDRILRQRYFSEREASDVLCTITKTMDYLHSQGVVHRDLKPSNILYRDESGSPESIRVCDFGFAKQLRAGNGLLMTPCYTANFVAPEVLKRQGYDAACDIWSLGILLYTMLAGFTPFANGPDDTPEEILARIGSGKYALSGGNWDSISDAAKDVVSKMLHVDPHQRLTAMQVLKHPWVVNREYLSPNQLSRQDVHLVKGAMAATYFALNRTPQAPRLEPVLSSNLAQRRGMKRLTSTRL

RPS6KA5 KD2 (human) = RPS6KA5 KD2 (human) (UniProt O75582)
STK3 (human) = STK3 (human) (UniProt Q13188)
STK35 (human) = STK35 (human) (UniProt Q8TDR2)
TAOK1 (human) = TAOK1 (human) (UniProt Q7L7X3)
TEK (human) = TEK (human) (UniProt Q02763)
TNK1 (human) = TNK1 (human) (UniProt Q13470)
TNK2 (human) = TNK2 (human) (UniProt Q07912)
TNNI3K (human) = TNNI3K (human) (UniProt Q59H18)
TYRO3 (human) = TYRO3 (human) (UniProt Q06418)
ZAP70 (human) = ZAP70 (human) (UniProt P43403)

Sequence of CDK17 (human) (Q00537 whole entry, looked up): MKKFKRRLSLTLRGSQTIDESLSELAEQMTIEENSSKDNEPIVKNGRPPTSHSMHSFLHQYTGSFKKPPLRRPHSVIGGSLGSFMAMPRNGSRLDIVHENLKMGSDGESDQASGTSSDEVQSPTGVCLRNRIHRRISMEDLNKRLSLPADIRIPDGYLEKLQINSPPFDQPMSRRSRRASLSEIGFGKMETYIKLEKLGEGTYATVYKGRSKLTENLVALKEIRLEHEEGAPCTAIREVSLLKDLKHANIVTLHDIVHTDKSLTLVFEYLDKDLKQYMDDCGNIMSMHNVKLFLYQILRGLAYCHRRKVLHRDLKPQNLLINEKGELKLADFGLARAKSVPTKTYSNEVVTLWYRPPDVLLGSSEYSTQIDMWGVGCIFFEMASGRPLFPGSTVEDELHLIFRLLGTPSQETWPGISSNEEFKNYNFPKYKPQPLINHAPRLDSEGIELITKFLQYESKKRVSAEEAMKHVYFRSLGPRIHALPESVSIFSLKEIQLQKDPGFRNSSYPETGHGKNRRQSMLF
Sequence of CDKL2 (human) (Q92772 whole entry, looked up): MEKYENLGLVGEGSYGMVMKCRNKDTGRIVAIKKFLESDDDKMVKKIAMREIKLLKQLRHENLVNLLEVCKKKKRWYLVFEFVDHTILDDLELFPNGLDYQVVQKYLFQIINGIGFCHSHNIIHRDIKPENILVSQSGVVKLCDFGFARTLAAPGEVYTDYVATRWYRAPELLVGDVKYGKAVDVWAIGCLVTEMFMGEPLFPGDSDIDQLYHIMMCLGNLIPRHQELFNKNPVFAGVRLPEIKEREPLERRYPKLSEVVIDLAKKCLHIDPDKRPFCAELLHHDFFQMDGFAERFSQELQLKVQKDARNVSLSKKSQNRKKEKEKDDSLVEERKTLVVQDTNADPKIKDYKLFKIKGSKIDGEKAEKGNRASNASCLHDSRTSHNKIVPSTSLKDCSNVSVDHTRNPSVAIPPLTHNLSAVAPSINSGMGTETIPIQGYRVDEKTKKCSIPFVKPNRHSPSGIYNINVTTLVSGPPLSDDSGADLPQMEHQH

SMILES | kinase still bound, per cent of control (ACVR2A (human)) | kinase still bound, per cent of control (AKT3 (human)) | kinase still bound, per cent of control (BMPR1A (human)) | kinase still bound, per cent of control (CDK17 (human)) | kinase still bound, per cent of control (CDKL2 (human)) | kinase still bound, per cent of control (CHEK2 (human)) | kinase still bound, per cent of control (CSK (human)) | kinase still bound, per cent of control (CSNK2A1 (human)) | kinase still bound, per cent of control (DMPK (human)) | kinase still bound, per cent of control [1] | kinase still bound, per cent of control (EPHA6 (human)) | kinase still bound, per cent of control (EPHA7 (human)) | kinase still bound, per cent of control (FER (human)) | kinase still bound, per cent of control (FGFR2 (human)) | kinase still bound, per cent of control [2] | kinase still bound, per cent of control [3] | kinase still bound, per cent of control [4] | kinase still bound, per cent of control (MAPK10 (human)) | kinase still bound, per cent of control (MAPK4 (human)) | kinase still bound, per cent of control (MST1R (human)) | also measured
Nc1ccc(-c2ccc3ncc4ccc(=O)n(-c5cccc(C(F)(F)F)c5)c4c3c2)cn1 | 95% | 100% | 100% | 98% | 91% | 100% | 100% | 79% | 95% | 100% | 100% | 100% | 95% | 90% | 11% | 92% | 13% | 78% | 75% | 90% | kinase still bound, per cent of control (MST4 (human)): 73%; kinase still bound, per cent of control (NEK6 (human)): 92%; kinase still bound, per cent of control (NUAK2 (human)): 46%; kinase still bound, per cent of control (PAK1 (human)): 95%; kinase still bound, per cent of control (PIM1 (human)): 92%; kinase still bound, per cent of control (PIM3 (human)): 100%; kinase still bound, per cent of control (PRKCD (human)): 88%; kinase still bound, per cent of control (PRKG1 (human)): 83%; kinase still bound, per cent of control (RIPK1 (human)): 100%; kinase still bound, per cent of control (RPS6KA2 KD1 (human)): 100%; kinase still bound, per cent of control (RPS6KA5 KD2 (human)): 100%; kinase still bound, per cent of control (STK3 (human)): 63%; kinase still bound, per cent of control (STK35 (human)): 92%; kinase still bound, per cent of control (TAOK1 (human)): 62%; kinase still bound, per cent of control (TEK (human)): 100%; kinase still bound, per cent of control (TNK1 (human)): 100%; kinase still bound, per cent of control (TNK2 (human)): 100%; kinase still bound, per cent of control (TNNI3K (human)): 100%; kinase still bound, per cent of control (TYRO3 (human)): 100%; kinase still bound, per cent of control (ZAP70 (human)): 100%
Cc1ccc(C(=O)Nc2cccc(C(F)(F)F)c2)cc1Nc1cncc(C(N)=O)c1 | 100% | 100% | 100% | 100% | 100% | 100% | 100% | 100% | 100% | 100% | 100% | 100% | 100% | 100% | 100% | 100% | 100% | 100% | 100% | 100% | kinase still bound, per cent of control (MST4 (human)): 100%; kinase still bound, per cent of control (NEK6 (human)): 100%; kinase still bound, per cent of control (NUAK2 (human)): 100%; kinase still bound, per cent of control (PAK1 (human)): 100%; kinase still bound, per cent of control (PIM1 (human)): 100%; kinase still bound, per cent of control (PIM3 (human)): 100%; kinase still bound, per cent of control (PRKCD (human)): 100%; kinase still bound, per cent of control (PRKG1 (human)): 100%; kinase still bound, per cent of control (RIPK1 (human)): 100%; kinase still bound, per cent of control (RPS6KA2 KD1 (human)): 100%; kinase still bound, per cent of control (RPS6KA5 KD2 (human)): 100%; kinase still bound, per cent of control (STK3 (human)): 100%; kinase still bound, per cent of control (STK35 (human)): 100%; kinase still bound, per cent of control (TAOK1 (human)): 100%; kinase still bound, per cent of control (TEK (human)): 100%; kinase still bound, per cent of control (TNK1 (human)): 100%; kinase still bound, per cent of control (TNK2 (human)): 100%; kinase still bound, per cent of control (TNNI3K (human)): 12%; kinase still bound, per cent of control (TYRO3 (human)): 100%; kinase still bound, per cent of control (ZAP70 (human)): 100%
CCN1CCN(Cc2ccc(Nc3ncc4c(n3)N(C)c3ccccc3C(=O)N4C)cc2C(F)(F)F)CC1 | 56% | 100% | 8.2% | 88% | 80% | 100% | 93% | 79% | 91% | 88% | 90% | 100% | 100% | 50% | 21% | 93% | 0.1% | 100% | 100% | 100% | kinase still bound, per cent of control (MST4 (human)): 5.6%; kinase still bound, per cent of control (NEK6 (human)): 64%; kinase still bound, per cent of control (NUAK2 (human)): 6.6%; kinase still bound, per cent of control (PAK1 (human)): 86%; kinase still bound, per cent of control (PIM1 (human)): 86%; kinase still bound, per cent of control (PIM3 (human)): 84%; kinase still bound, per cent of control (PRKCD (human)): 100%; kinase still bound, per cent of control (PRKG1 (human)): 100%; kinase still bound, per cent of control (RIPK1 (human)): 24%; kinase still bound, per cent of control (RPS6KA2 KD1 (human)): 37%; kinase still bound, per cent of control (RPS6KA5 KD2 (human)): 100%; kinase still bound, per cent of control (STK3 (human)): 8.1%; kinase still bound, per cent of control (STK35 (human)): 76%; kinase still bound, per cent of control (TAOK1 (human)): 0.2%; kinase still bound, per cent of control (TEK (human)): 85%; kinase still bound, per cent of control (TNK1 (human)): 0.3%; kinase still bound, per cent of control (TNK2 (human)): 24%; kinase still bound, per cent of control (TNNI3K (human)): 78%; kinase still bound, per cent of control (TYRO3 (human)): 92%; kinase still bound, per cent of control (ZAP70 (human)): 90%
